In PMC11861906, “Structural basis for lipid-mediated activation of G protein-coupled receptor GPR55” (Nature Communications, 2025):

Columns and labels:
Format in all cases: cell-based
[1] = target: GPR55 mutant N171Q (Gα13) (Homo sapiens, UniProt Q9Y2T6, N171Q); assay: BRET² G protein dissociation assay, GPR55 N171Q with Gα13
Description: (§1) To validate the functionality of the GPR55 cryo-EM construct, we conducted bioluminescence resonance energy transfer 2 (BRET²)-based G protein dissociation assays[46],[47] using an engineered heterotrimeric G13 protein. The N-terminal GFP fusion of the receptor was additionally modified with a G67A mutation to disrupt fluorescence properties. We employed human embryonic kidney (HEK) cells overexpressing wt or mutant GPR55 together with Gβ3, Gγ9-GFP, and Gα13 tagged with Renilla luciferase 8 (Rluc8).
(§2) G protein dissociation assays were performed according to the original protocols of the TRUPATH BRET² assay[47],[87] but with subtle modifications as previously described[61],[88],[89]. All reagents and cells were obtained from Thermo Fisher Scientific unless indicated otherwise. The coding sequences for the G protein biosensors[47] (Gα12-Rluc8, Gα13-Rluc8, wt Gβ3, and Gγ9-GFP), the wt GPR55, the construct used for cryo-EM (with GFP bearing a G67A mutation to disrupt fluorescence properties[48] for BRET² assays), GPR55 binding pocket mutants (G152^4.56F, G152^4.56W, N171^ECL2Q, N171^ECL2A, T176^5.33A, R253^6.62A), and the wt TBXA2R were codon-optimized for Homo sapiens, gene-synthesized, and sub-cloned into pcDNA^TM3.1(+) between NheI and HindIII restriction sites by GeneArt (Thermo Fisher Scientific). […] Freshly grown cells were washed with Dulbecco’s Balanced Salt Solution (DPBS, cat. #14200075) and detached using trypsin-ethylenediaminetetraacetic acid (trypsin-EDTA) (cat. #25300-062). Then, the cells were reconstituted to 500,000 cells per mL with fresh medium, and 1,000,000 cells were seeded into each well of a 6-well plate. After 3 h incubation at 37 °C and 5% CO2, adherent cells were transfected with 600 ng DNA (1:1:1:1 ratio of plasmid DNA for GPR55, wt Gβ3, Gγ9-GFP, and Gα12-Rluc8 or Gα13-Rluc8). Plasmid DNA was mixed with 1.5 µL Lipofectamine^TM 2000 (cat. #11668027) in Opti-MEM^TM medium (cat. #31985062) and incubated for 20 min. Then, the mixture was added to each well of the 6-well plate following 24 h incubation at 37 °C and 5% CO2. Transfected cells were washed with DPBS, detached using EDTA (Versene, cat. #15040066), and reconstituted into fresh medium at 500,000 cells mL^−1. From this suspension, 50,000 cells were seeded into each well of a white-bottom 96-well plate (Nunc^TM MicroWell^TM 96 wells, cat. #136101) following overnight incubation at 37 °C and 5% CO2. Then, the adherent cells were washed with assay medium [Hank’s balanced salt solution (HBSS, cat. #14065056) plus 20 mM HEPES pH 7.4 (cat. #15630056)] and finally reconstituted into 50 µL of the same medium. […] Methoxy e-Coelenterazine was used as luciferase substrate (Prolume Purple, NanoLight Technology, cat. #369), reconstituted at 1 mM in methanol and diluted to 37.5 µM with assay buffer (7.5 µM final assay concentration). The assay was started by the addition of 20 µL luciferase substrate to each well of the assay plate using a Multidrop^TM Combi reagent dispenser (Thermo Fisher Scientific), followed by 5 min incubation at room temperature. Then, 30 µL of agonist dilutions or DMSO control was added (final DMSO concentration 1.5%), followed by an additional 5 min incubation at room temperature. BRET² measurements were performed with a PHERAstar® FSX microplate reader (BMG LABTECH) using a BRET² filter (donor emission 370–450 nm, acceptor emission 500–530 nm) at the maximum fluorescence gain of 3600. BRET² ratios were calculated by dividing GFP emission signals from Rluc8 emission counts. Buffer-DMSO controls were subtracted from each data point to calculate ΔBRET² ratios.

[2] = target: GPR55 cryo-EM construct (Gα13) (Homo sapiens, UniProt Q9Y2T6); assay: BRET² G protein dissociation assay, GPR55 cryo-EM construct (GFP G67A) with Gα13; conditions: for BRET2 response, Mean (plotted, Fig. S4): Cryo-EM-G67A-G13
Description: as §1, §2

[3] = target: GPR55 mutant R253A (Gα13) (Homo sapiens, UniProt Q9Y2T6, R253A); assay: BRET² G protein dissociation assay, GPR55 R253A with Gα13
Description: as §1, §2

Structure (SMILES) | Mean (plotted) BRET² response, GPR55-N171Q-G13 ([1]; Concentration 300 pM) | Mean (plotted) BRET² response, GPR55-N171Q-G13 ([1]; Concentration 1e-9 M) | Mean (plotted) BRET² response, GPR55-N171Q-G13 ([1]; Concentration 3e-9 M) | Mean (plotted) BRET² response, GPR55-N171Q-G13 ([1]; Concentration 1e-8 M) | Mean (plotted) BRET² response, GPR55-N171Q-G13 ([1]; Concentration 3e-8 M) | Mean (plotted) BRET² response, GPR55-N171Q-G13 ([1]; Concentration 1e-7 M) | Mean (plotted) BRET² response, GPR55-N171Q-G13 ([1]; Concentration 3e-7 M) | Mean (plotted) BRET² response, GPR55-N171Q-G13 ([1]; Concentration 1e-6 M) | Mean (plotted) BRET² response, GPR55-N171Q-G13 ([1]; Concentration 3e-6 M) | Mean (plotted) BRET² response, GPR55-N171Q-G13 ([1]; Concentration 1e-5 M) | Mean (plotted) BRET² response, GPR55-N171Q-G13 ([1]; Concentration 3e-5 M) | BRET2 response, Mean (plotted, Fig. S4) ([2]; concentration 300 pM) | BRET2 response, Mean (plotted, Fig. S4) ([2]; concentration 1e-9 M) | BRET2 response, Mean (plotted, Fig. S4) ([2]; concentration 3e-9 M) | BRET2 response, Mean (plotted, Fig. S4) ([2]; concentration 1e-8 M) | BRET2 response, Mean (plotted, Fig. S4) ([2]; concentration 3e-8 M) | BRET2 response, Mean (plotted, Fig. S4) ([2]; concentration 1e-7 M) | BRET2 response, Mean (plotted, Fig. S4) ([2]; concentration 3e-7 M) | BRET2 response, Mean (plotted, Fig. S4) ([2]; concentration 1e-6 M) | Mean (plotted) BRET² response, GPR55-R253A-G13 ([3]; Concentration 300 pM) | also measured
Cc1cccc(N2CCN(C(=O)c3cc(S(=O)(=O)N(C)C)ccc3N3CCCC3)CC2)c1C [ML184, 3-[[4-(2,3-dimethylphenyl)-1-piperazinyl]carbonyl]-N,N-dimethyl-4-(1-pyrrolidinyl)benzenesulfonamide] | -0.001828 | -0.002418 | -0.001477 | -0.0001092 | -0.001125 | -0.006817 | -0.01585 | -0.03451 | -0.05647 | -0.07313 | -0.08032 | 0.0007 | -0.00467 | -0.01143 | -0.02458 | -0.03698 | -0.04541 | -0.05211 | -0.05461 | -0.01108 | EC50 ([1]; GPR55 N171Q, Gα13): 1410 nM; Emax at 30 µM ([1]; GPR55 N171Q, Gα13, 30 µM ligand, same normalization, read-out: Efficacy ± SEM (%)): 76 ± 2%; reduction of potency compared to wt GPR55 ([1]; N171Q mutant): 32 fold; EC50 ([2]; Cryo-EM construct (G67A), Gα13): 18.2 nM; Emax at 30 µM ([2]; Cryo-EM construct (G67A), Gα13, 30 µM ligand, same normalization, read-out: Efficacy ± SEM (%)): 86 ± 2%; BRET2 response, Mean (plotted, Fig. S4) ([2]; concentration 3e-6 M): -0.05649; BRET2 response, Mean (plotted, Fig. S4) ([2]; concentration 1e-5 M): -0.05972; BRET2 response, Mean (plotted, Fig. S4) ([2]; concentration 3e-5 M): -0.06146; Mean (plotted) BRET² response, GPR55-R253A-G13 ([3]; Concentration 1e-9 M): -0.01039; Mean (plotted) BRET² response, GPR55-R253A-G13 ([3]; Concentration 3e-9 M): -0.0289; Mean (plotted) BRET² response, GPR55-R253A-G13 ([3]; Concentration 1e-8 M): -0.05814; Mean (plotted) BRET² response, GPR55-R253A-G13 ([3]; Concentration 3e-8 M): -0.08149; Mean (plotted) BRET² response, GPR55-R253A-G13 ([3]; Concentration 1e-7 M): -0.0987; Mean (plotted) BRET² response, GPR55-R253A-G13 ([3]; Concentration 3e-7 M): -0.1069; Mean (plotted) BRET² response, GPR55-R253A-G13 ([3]; Concentration 1e-6 M): -0.1131; Mean (plotted) BRET² response, GPR55-R253A-G13 ([3]; Concentration 3e-6 M): -0.1166; Mean (plotted) BRET² response, GPR55-R253A-G13 ([3]; Concentration 1e-5 M): -0.1236; Mean (plotted) BRET² response, GPR55-R253A-G13 ([3]; Concentration 3e-5 M): -0.1287; EC50 ([3]; GPR55 R253A, Gα13): 14.5 nM; increase of potency compared to wt GPR55 ([3]; R253A mutant): slightly increased by a factor of three
CCCCC[C@H](O)/C=C/[C@@H]1[C@@H](C/C=C\CCCC(=O)O)[C@H]2CO[C@@H]1C2 [U-46619] | -0.0003198 | 0.003698 | 0.002984 | -0.00933 | 0.006599 | 0.005054 | 0.005811 | 0.005259 | -0.001778 | 0.001984 | -0.005542 | 0.0002 | -7.5e-5 | 0.0017 | -0.0133 | 0.000825 | 0.0026 | 0.003275 | 0.00345 | -0.008328 | Mean (plotted) BRET² response, GPR55-N171Q-G13 ([1]; Concentration 10 pM): 0.0013; Mean (plotted) BRET² response, GPR55-N171Q-G13 ([1]; Concentration 30 pM): 0.00095; Mean (plotted) BRET² response, GPR55-N171Q-G13 ([1]; Concentration 100 pM): 0.00685; BRET2 response, Mean (plotted, Fig. S4) ([2]; concentration 10 pM): 0.00025; BRET2 response, Mean (plotted, Fig. S4) ([2]; concentration 30 pM): -0.003725; BRET2 response, Mean (plotted, Fig. S4) ([2]; concentration 100 pM): -0.000225; Mean (plotted) BRET² response, GPR55-R253A-G13 ([3]; Concentration 10 pM): 0.0024; Mean (plotted) BRET² response, GPR55-R253A-G13 ([3]; Concentration 30 pM): 0.00435; Mean (plotted) BRET² response, GPR55-R253A-G13 ([3]; Concentration 100 pM): 0.00475; Mean (plotted) BRET² response, GPR55-R253A-G13 ([3]; Concentration 1e-9 M): 0.002391; Mean (plotted) BRET² response, GPR55-R253A-G13 ([3]; Concentration 3e-9 M): 0.002546; Mean (plotted) BRET² response, GPR55-R253A-G13 ([3]; Concentration 1e-8 M): 0.001532; Mean (plotted) BRET² response, GPR55-R253A-G13 ([3]; Concentration 3e-8 M): 0.002853; Mean (plotted) BRET² response, GPR55-R253A-G13 ([3]; Concentration 1e-7 M): 0.0008838; Mean (plotted) BRET² response, GPR55-R253A-G13 ([3]; Concentration 3e-7 M): -0.0001645; Mean (plotted) BRET² response, GPR55-R253A-G13 ([3]; Concentration 1e-6 M): -0.0002602; Mean (plotted) BRET² response, GPR55-R253A-G13 ([3]; Concentration 3e-6 M): -0.001768; Mean (plotted) BRET² response, GPR55-R253A-G13 ([3]; Concentration 1e-5 M): -0.005378; Mean (plotted) BRET² response, GPR55-R253A-G13 ([3]; Concentration 3e-5 M): -0.00746
